The values that follow come from paper PMC12652692, “Synthesis and In Vitro Anticancer Evaluation of Novel Phosphonium Derivatives of Chrysin” (International Journal of Molecular Sciences, 2025).

What all share (test): NCI60 one-dose screen
What all share (assay type): cell-based

The subject of one assay is SNB-75. The conditions noted are these: Homo sapiens; SNB-75, 10 μM; read-out: Growth percent. How it is done:
(§1) The screening results are presented in the Supplementary Materials (Table S1), where the cytotoxicity was determined for the 10 µM concentration. […] The negative numbers indicate significant decreases in the cell number. […] Compared to the reference chrysin (2), all phosphonium hybrids (3a–h) had significant antiproliferative activities. […] At the same time, it should be noted that more than 60% average reduction was also obtained in the case of the other examined conjugates (3a–h).
(§2) A detailed description of the NCI screening procedures, including the one-dose and five-dose tests, can be found in the Supplementary Materials, on the website of NCI [39], and in our previous work.
(§3) A detailed description of the NCI screening procedures can also be found on the website of NCI [39], and in our […]
(§4) All candidates were examined at first at a single high dose (10 μM) in the full NCI60 cell panel. The value reported for the one-dose test is growth relative to the no-drug control and relative to the time zero number of cells. This made possible the disclosure of both growth inhibition (numbers between 0 and 100) and lethality (numbers less than 0). For example, a value of 100 means no growth inhibition. A value of 20 would mean 80% growth inhibition. A value of 0 means no net growth over the course of the analysis. A value of −20 would mean 20% lethality. A value of −100 means all cells are dead. […]
(§5) concentration levels. The human tumor cell lines of the cancer screening panel were grown in RPMI 1640 medium containing 5% fetal bovine serum and 2 mM l-glutamine. Characteristically, cells were injected in 96-well microtiter plates in 0.1 mL at plating densities ranging from 5000 to 40,000 cells/well, depending on the doubling time of individual cell lines. After cell inoculation, the microtiter plates were incubated at 37 °C, 5% carbon dioxide, 95% air, and 100% relative humidity for 24 hours before the addition of tested compounds. After 24 hours, 2 plates of each cell line were fixed in situ with Cl3COOH (TCA), to represent a measurement of the cell population for each cell line at the time of drug addition (tz). Tested compounds were solubilized in DMSO at 400-fold the desired final maximum test concentration and stored frozen before application. In the course of the drug addition, an aliquot of frozen concentrate was thawed and diluted to twice the desired final maximum test concentration with a complete medium containing 50 μg mL−1 gentamicin. Additional four, 10-fold or ½ log serial dilutions were produced to furnish a total of five drug concentrations plus control. Aliquots of 0.1 mL of these different drug dilutions were added to the appropriate microtiter wells already containing 0.1 mL of medium, resulting in the required final drug concentrations.
(§6) Following drug addition, the plates were incubated at 37 °C, 5% carbon dioxide, 95% air, and 100% relative humidity for an additional 48 hours. For adherent cells, the test was finished by the addition of cold Cl3COOH. Cells were fixed in situ by the addition of 50 μL of cold 50% (w/v) Cl3COOH, and incubated at 4 °C for 1 hour. The supernatant was discarded, and the plates were washed with H2O (5×) and dried in air. Sulforhodamine B (SRB) solution (0.1 mL) at 0.4% (w/v) in 1% CH3COOH was added to each well, and plates were incubated at RT for 10 min. After staining, the unbound dye was removed by washing five times with 1% CH3COOH, and the plates were dried in the air. The bound stain is afterward solubilized with a 10 mM trizma base, and the absorbance is read on an automated plate reader at λ = 515 nm. Utilizing the seven absorbance measurements [time zero (tz), control growth (c), and test growth in the presence of the drug at the five concentration levels (ti)], the percentage growth was determined at each of the drug concentration levels. Growth inhibition (%) was calculated as:
(§7) [(ti − tz)/(c − tz)] × 100, for concentrations where ti ≥ tz (1) […]

Another assay relates to OVCAR-8. The conditions noted are these: Homo sapiens; OVCAR-8, 10 μM; read-out: Growth percent. How it is done: as §1, §2, §3, §4, §5, §6, §7
The next assay relates to HCT-15. The conditions noted are these: Homo sapiens; HCT-15, 10 μM; read-out: Growth percent. As for the experimental part:
as §1, §2, §3, §4, §5, §6, §7

The next assay deals with MALME-3M. Conditions: Homo sapiens, read-out: Growth percent. As for the experimental part: as §1, §2, §3, §4, §5, §6, §7
Another assay deals with KM12. The conditions noted are these: Homo sapiens; KM12, 10 μM; read-out: Growth percent. How it is done: as §1, §2, §3, §4, §5, §6, §7
In a further assay the test system is NCI-H460. Conditions: Homo sapiens; NCI-H460, 10 μM; read-out: Growth percent. As for the experimental part:
as §1, §2, §3, §4, §5, §6, §7

The test system of the next assay is OVCAR-5. Conditions: Homo sapiens; OVCAR-5, 10 μM; read-out: Growth percent. How it is done:
as §1, §2, §3, §4, §5, §6, §7

Another assay concerns K-562. The conditions noted are these: Homo sapiens, K562; K-562, 10 μM; read-out: Growth percent. As for the experimental part:
as §1, §2, §3, §4, §5, §6, §7

The subject of the next assay is A498. The conditions noted are these: Homo sapiens; A498, 10 μM; read-out: Growth percent. As for the experimental part: as §1, §2, §3, §4, §5, §6, §7
In the next assay the test system is NCI-H522. The conditions noted are these: Homo sapiens; NCI-H522, 10 μM; read-out: Growth percent. How it is done:
as §1, §2, §3, §4, §5, §6, §7

The subject of the next assay is SF-295. Conditions: Homo sapiens; SF-295, 10 μM; read-out: Growth percent. As for the experimental part:
as §1, §2, §3, §4, §5, §6, §7

A further assay concerns U251. Conditions: Homo sapiens, U-251; U251, 10 μM; read-out: Growth percent. How it is done:
as §1, §2, §3, §4, §5, §6, §7

The test system of another assay is CCRF-CEM. Conditions: Homo sapiens, read-out: Growth percent. As for the experimental part: as §1, §2, §3, §4, §5, §6, §7
Another assay relates to RXF 393. The conditions noted are these: Homo sapiens; RXF 393, 10 μM; read-out: Growth percent. As for the experimental part:
as §1, §2, §3, §4, §5, §6, §7

The next assay deals with EKVX. The conditions noted are these: Homo sapiens, read-out: Growth percent. As for the experimental part:
as §1, §2, §3, §4, §5, §6, §7

In a further assay the test system is OVCAR-3. The conditions noted are these: Homo sapiens; OVCAR-3, 10 μM; read-out: Growth percent. As for the experimental part: as §1, §2, §3, §4, §5, §6, §7
For another assay, the system named is IGROV1. Conditions: Homo sapiens, IGROV-1; IGROV1, 10 μM; read-out: Growth percent. How it is done:
as §1, §2, §3, §4, §5, §6, §7

The next assay deals with SW-620. Conditions: Homo sapiens; SW-620, 10 μM; read-out: Growth percent. As for the experimental part: as §1, §2, §3, §4, §5, §6, §7
Another assay deals with UACC-257. Conditions: Homo sapiens; UACC-257, 10 μM; read-out: Growth percent. As for the experimental part: as §1, §2, §3, §4, §5, §6, §7
The subject of the next assay is NCI/ADR-RES. The conditions noted are these: Homo sapiens, read-out: Growth percent. As for the experimental part:
as §1, §2, §3, §4, §5, §6, §7

Another assay concerns HS 578T. The conditions noted are these: Homo sapiens, read-out: Growth percent. How it is done:
as §1, §2, §3, §4, §5, §6, §7

Regarding `COc1ccc([P+](CCCCOc2cc(O)c3c(=O)cc(-c4ccccc4)oc3c2)(c2ccc(OC)cc2)c2ccc(OC)cc2)cc1` [3c], the activity at 10 µM is -51.1% in the assay on SNB-75; -90.6% with OVCAR-8; -64.2% in the assay with HCT-15; -45% with MALME-3M; -86.2% in the assay with KM12; 2.18% with NCI-H460. The activity at 10 µM was -59.3% in the assay on OVCAR-5; -39.8% in the assay on K-562; -83% with A498; -84.9% with NCI-H522; -73.8% in the assay on SF-295; -92.6% in the assay on U251. Further, the activity at 10 µM was -71.7% with CCRF-CEM; -74.4% in the assay on RXF 393; -70.9% in the assay with EKVX; -68.1% in the assay on OVCAR-3; -6.99% in the assay with IGROV1; -34.8% in the assay with SW-620. Further, the activity at 10 µM is -94.7% in the assay on UACC-257, -13.2% in the assay on NCI/ADR-RES and -62.7% in the assay on HS 578T.
As for `Cc1ccccc1[P+](CCCCOc1cc(O)c2c(=O)cc(-c3ccccc3)oc2c1)(c1ccccc1C)c1ccccc1C` [3g], the activity at 10 µM is -99% in the assay with SNB-75; -95.9% in the assay on OVCAR-8; -94.7% in the assay with HCT-15; -98.5% in the assay on MALME-3M; -95.8% in the assay with KM12; -91.5% in the assay with NCI-H460. The activity at 10 µM in the assay on K-562 is -97.5%; in the assay on A498, -99.1%; with NCI-H522, -98.5%; in the assay on SF-295, -98.7%; in the assay on U251, -97%; with CCRF-CEM, -96.5%. Besides, the activity at 10 µM was -98.7% in the assay with RXF 393; -98.4% in the assay with EKVX; -99.1% with OVCAR-3; -99.1% with IGROV1; -96.4% with SW-620; -99.3% in the assay with UACC-257. The results for the activity at 10 µM with NCI/ADR-RES and in the assay on HS 578T were -97.9% and -98.3%, respectively.
On to `O=c1cc(-c2ccccc2)oc2cc(OCCCC[P+](c3ccccc3)(c3ccccc3)c3ccccc3)cc(O)c12` [3a], for which the activity at 10 µM was -80.7% in the assay on SNB-75; -61.1% with OVCAR-8; -94.2% in the assay on HCT-15; -88% in the assay with MALME-3M; -85.2% in the assay on KM12; -75.8% in the assay on NCI-H460. In addition, the activity at 10 µM with OVCAR-5 is -97.7%; in the assay with K-562, -24.1%; in the assay on A498, -83.3%; in the assay with NCI-H522 it was -81.9%; with SF-295, -96%; with U251, -57.4%. Moreover, the activity at 10 µM in the assay with CCRF-CEM was -75.9%; in the assay with EKVX, -97.6%; in the assay with OVCAR-3, -94%; in the assay with IGROV1, -75.7%; in the assay on SW-620, -81.7%; in the assay on UACC-257 it was -91%. In addition, the activity at 10 µM with NCI/ADR-RES is -68.3%; in the assay with HS 578T it was -35.2%.
With `O=c1cc(-c2ccccc2)oc2cc(OCCCC[P+](C3CCCCC3)(C3CCCCC3)C3CCCCC3)cc(O)c12` [3e], the activity at 10 µM is -80.5% in the assay on SNB-75; -86.4% in the assay with OVCAR-8; -88.8% in the assay with HCT-15; -76.9% with MALME-3M; -92% in the assay with KM12; -66% with NCI-H460. Besides, the activity at 10 µM in the assay with OVCAR-5 is -60.5%; with K-562, 3.17%; in the assay with A498 it was -87.6%; in the assay on NCI-H522 it was -88%; in the assay with SF-295, -87%; in the assay on U251, -95.5%. Besides, the activity at 10 µM is -66.7% in the assay on CCRF-CEM; -80% in the assay on RXF 393; -83.5% with EKVX; -81.9% with OVCAR-3; -59.4% in the assay with IGROV1; -76.4% with SW-620. The figures for the activity at 10 µM in the assay with UACC-257, in the assay with NCI/ADR-RES and in the assay with HS 578T were -92.2%, -20.8% and -62.1%, respectively.
Turning to `COc1c(C)cc([P+](CCCCOc2cc(O)c3c(=O)cc(-c4ccccc4)oc3c2)(c2cc(C)c(OC)c(C)c2)c2cc(C)c(OC)c(C)c2)cc1C` [3f], the activity at 10 µM with SNB-75 was -71%; in the assay with OVCAR-8, -68.1%; with HCT-15, -58.9%; with MALME-3M it was -42.5%; in the assay with KM12, -82.3%; in the assay with NCI-H460, -58.6%. Besides, the activity at 10 µM in the assay with OVCAR-5 was -87.8%; in the assay with K-562, 6.85%; with A498, -83.4%; in the assay on NCI-H522, -77.3%; with SF-295, -63.6%; in the assay on U251, -76.6%. The activity at 10 µM with CCRF-CEM is -32.6%; in the assay on RXF 393, -66.9%; with EKVX, -76.5%; with OVCAR-3 it was -69.8%; in the assay on IGROV1 it was -38%; with SW-620 it was -62.4%. For the same molecule, the activity at 10 µM in the assay with UACC-257 is -79.7%; with NCI/ADR-RES it was -66.8%; in the assay with HS 578T it was -57.7%.
